# Measured values published in ChEMBL document CHEMBL6078684, “Discovery of a Novel Non-invasive AR PROTAC Degrader for the Topical Treatment of Androgenetic Alopecia” (J Med Chem, 2024).
# Calls of active or inactive are those of the source. The calls are words filed in the database; no cut-off is given here.
# Columns and labels:
# Mus musculus [1] = experiment: Hair regeneration efficacy in testosterone induced male C57BL/6 mouse androgenetic alopecia model assessed as entry of hair follicles to anagen phase by measuring high density of enlarged hair bulbs in subcutaneous tissue at 0.4 %, TOP administered once daily for 14 days with co-administration of 0.2% testosterone for 28 days by H and E staining based analysis; assay type: functional, organism-based; settings: time 14.0 day
# [2] = biological target: T1, Protein cereblon/Androgen receptor (Homo sapiens, UniProt P10275+Q96SW2); experiment: PROTAC activity at CRBN/AR in human dermal papilla cells assessed as inhibition of TGF-beta1 release by measuring TGF-beta1 concentration at 1 uM preincubated with testosterone for 24 hrs followed by compound addition and measured after 48 hrs by ELISA; assay type: cell-based; settings: Human dermal papilla cell
# Target sequence in this assay (P10275 whole entry, looked up): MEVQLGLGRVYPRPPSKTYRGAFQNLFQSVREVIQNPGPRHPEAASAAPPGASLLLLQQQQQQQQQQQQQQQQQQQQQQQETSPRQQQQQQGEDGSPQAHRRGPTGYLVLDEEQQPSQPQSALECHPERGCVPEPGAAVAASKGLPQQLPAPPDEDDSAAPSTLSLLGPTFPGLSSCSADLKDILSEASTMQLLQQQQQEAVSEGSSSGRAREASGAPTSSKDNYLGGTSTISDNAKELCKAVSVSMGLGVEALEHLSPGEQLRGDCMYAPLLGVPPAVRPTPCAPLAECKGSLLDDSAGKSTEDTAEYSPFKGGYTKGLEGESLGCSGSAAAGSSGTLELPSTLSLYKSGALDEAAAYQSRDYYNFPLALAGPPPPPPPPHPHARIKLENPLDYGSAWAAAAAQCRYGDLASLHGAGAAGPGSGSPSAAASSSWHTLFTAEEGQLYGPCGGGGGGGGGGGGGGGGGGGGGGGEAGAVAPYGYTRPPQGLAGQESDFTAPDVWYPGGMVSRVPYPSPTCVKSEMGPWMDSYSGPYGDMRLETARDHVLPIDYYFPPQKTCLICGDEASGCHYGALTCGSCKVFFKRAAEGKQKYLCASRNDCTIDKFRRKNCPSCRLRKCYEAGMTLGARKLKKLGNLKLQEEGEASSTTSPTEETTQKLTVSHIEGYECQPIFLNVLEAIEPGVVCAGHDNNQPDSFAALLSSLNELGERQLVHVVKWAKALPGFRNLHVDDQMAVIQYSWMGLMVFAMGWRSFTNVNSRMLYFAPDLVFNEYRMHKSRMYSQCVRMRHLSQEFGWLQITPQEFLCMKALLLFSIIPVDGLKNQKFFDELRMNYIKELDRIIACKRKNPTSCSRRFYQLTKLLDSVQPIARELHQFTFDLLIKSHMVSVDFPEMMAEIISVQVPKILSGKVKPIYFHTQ
# Target sequence in this assay (Q96SW2 whole entry, looked up): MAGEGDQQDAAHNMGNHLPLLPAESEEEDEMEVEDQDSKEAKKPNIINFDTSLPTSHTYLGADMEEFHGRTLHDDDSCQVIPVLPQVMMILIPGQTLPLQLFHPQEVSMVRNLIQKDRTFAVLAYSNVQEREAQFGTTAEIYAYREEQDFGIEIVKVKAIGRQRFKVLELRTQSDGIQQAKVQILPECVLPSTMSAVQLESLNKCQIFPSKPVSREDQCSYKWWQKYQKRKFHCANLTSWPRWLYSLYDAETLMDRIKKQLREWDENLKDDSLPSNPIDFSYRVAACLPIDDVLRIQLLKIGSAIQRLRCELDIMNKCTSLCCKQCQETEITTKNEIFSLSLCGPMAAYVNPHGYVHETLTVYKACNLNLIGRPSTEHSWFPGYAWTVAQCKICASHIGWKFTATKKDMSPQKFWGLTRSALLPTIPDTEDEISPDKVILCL
# [3] = Ratio of drug concentration in male ICR mouse skin to heart at 4 mg/ml, TOP measured after 4 hrs by LC-MS/MS analysis; assay type: ADME, tissue-based; settings: in vivo, topical_or_ocular
# Mus musculus [4] = experiment: Hair regeneration efficacy in testosterone induced male C57BL/6 mouse androgenetic alopecia model assessed as generation of thick hair with intact scales at 0.4 %, TOP administered once daily for 14 days with co-administration of 0.2% testosterone and measured after 28 days by SEM analysis; assay type: functional, organism-based; settings: time 28.0 day
# [5] = Ratio of drug concentration in male ICR mouse skin to lungs at 4 mg/ml, TOP measured after 12 hrs by LC-MS/MS analysis; assay type: ADME, tissue-based, Skin/Lung; settings: in vivo, topical_or_ocular
# [6] = Drug uptake in male Sprague-Dawley rat Dorsal skin assessed as retention rat at 1 mg/ml, TOP measured after 30 mins by LC-MS/MS analysis; assay type: ADME, tissue-based, Zone of skin; settings: in vivo, topical_or_ocular, 0.5 h
# [7] = Ratio of drug concentration in male ICR mouse skin to lungs at 4 mg/ml, TOP measured after 8 hrs by LC-MS/MS analysis; assay type: ADME, tissue-based, Skin/Lung; settings: in vivo, topical_or_ocular
# Mus musculus [8] = experiment: Hair regeneration efficacy in testosterone induced male C57BL/6 mouse androgenetic alopecia model assessed as increase in Ki67 expression in skin at 0.4 % TOP administered once daily for 14 days with co-administration of 0.2% testosterone for 28 days by DAPI staining based immunofluorescence analysis; assay type: functional, organism-based; settings: time 14.0 day
# [9] = Ratio of drug concentration in male ICR mouse skin to heart at 4 mg/ml, TOP measured after 1 hrs by LC-MS/MS analysis; assay type: ADME, tissue-based; settings: in vivo, topical_or_ocular
# [10] = biological target: Protein cereblon/Androgen receptor (Mus musculus) (UniProt P19091+Q8C7D2); experiment: In vivo PROTAC activity at CRBN/AR in testosterone induced male C57BL/6 mouse androgenetic alopecia model assessed as increase in beta-catenin expression level in skin at 0.4 % TOP administered once daily for 14 days with co-administration of 0.2% testosterone for 28 days by DAPI staining based immunofluorescence analysis; assay type: functional, organism-based; settings: time 14.0 day
# Protein cereblon/Androgen receptor (Mus musculus), sequence (P19091 whole entry, looked up): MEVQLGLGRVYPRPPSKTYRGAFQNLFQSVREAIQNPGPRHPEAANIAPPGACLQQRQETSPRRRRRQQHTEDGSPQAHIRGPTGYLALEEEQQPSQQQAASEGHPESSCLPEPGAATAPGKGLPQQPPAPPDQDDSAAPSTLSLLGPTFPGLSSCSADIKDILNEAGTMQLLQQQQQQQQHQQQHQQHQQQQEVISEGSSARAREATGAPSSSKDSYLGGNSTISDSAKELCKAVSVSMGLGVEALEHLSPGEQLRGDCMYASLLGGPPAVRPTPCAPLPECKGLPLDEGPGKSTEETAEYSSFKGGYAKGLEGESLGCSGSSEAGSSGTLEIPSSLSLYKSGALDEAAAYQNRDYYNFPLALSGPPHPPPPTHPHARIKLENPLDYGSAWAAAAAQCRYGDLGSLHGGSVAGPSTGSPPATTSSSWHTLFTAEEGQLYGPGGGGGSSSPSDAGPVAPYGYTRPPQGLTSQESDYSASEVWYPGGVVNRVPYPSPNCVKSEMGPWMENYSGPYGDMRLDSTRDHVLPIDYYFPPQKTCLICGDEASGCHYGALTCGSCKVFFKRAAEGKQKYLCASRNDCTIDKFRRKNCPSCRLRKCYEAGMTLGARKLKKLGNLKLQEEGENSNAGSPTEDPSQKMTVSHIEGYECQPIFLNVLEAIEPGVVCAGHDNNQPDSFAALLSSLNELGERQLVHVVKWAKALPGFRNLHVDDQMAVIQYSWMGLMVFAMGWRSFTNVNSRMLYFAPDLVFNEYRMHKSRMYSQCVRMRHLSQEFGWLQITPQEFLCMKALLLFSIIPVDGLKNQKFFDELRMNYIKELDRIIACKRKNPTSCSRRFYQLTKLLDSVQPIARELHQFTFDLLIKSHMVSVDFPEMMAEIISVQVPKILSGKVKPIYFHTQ
# Protein cereblon/Androgen receptor (Mus musculus), sequence (Q8C7D2 whole entry, looked up): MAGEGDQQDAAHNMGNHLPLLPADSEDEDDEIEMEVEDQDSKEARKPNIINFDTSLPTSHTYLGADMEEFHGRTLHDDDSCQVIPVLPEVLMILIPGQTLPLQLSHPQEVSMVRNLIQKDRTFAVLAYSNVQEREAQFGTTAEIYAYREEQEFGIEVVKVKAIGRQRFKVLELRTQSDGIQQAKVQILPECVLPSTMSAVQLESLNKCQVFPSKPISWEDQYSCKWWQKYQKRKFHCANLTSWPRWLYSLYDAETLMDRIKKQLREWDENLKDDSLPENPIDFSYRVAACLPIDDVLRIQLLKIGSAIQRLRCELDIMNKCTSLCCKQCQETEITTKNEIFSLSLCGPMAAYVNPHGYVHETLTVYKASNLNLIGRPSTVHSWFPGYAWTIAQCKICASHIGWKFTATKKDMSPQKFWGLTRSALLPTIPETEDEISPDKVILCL
# [11] = Ratio of drug concentration in male ICR mouse skin to kidney at 4 mg/ml, TOP measured after 1 hrs by LC-MS/MS analysis; assay type: ADME, tissue-based; settings: in vivo, topical_or_ocular
# [12] = Ratio of drug concentration in male ICR mouse skin to liver at 4 mg/ml, TOP measured after 0.25 hrs by LC-MS/MS analysis; assay type: ADME, tissue-based; settings: in vivo, topical_or_ocular
# [13] = Ratio of drug concentration in male ICR mouse skin to lungs at 4 mg/ml, TOP measured after 1 hrs by LC-MS/MS analysis; assay type: ADME, tissue-based, Skin/Lung; settings: in vivo, topical_or_ocular
# [14] = Ratio of drug concentration in male ICR mouse skin to liver at 4 mg/ml, TOP measured after 1 hrs by LC-MS/MS analysis; assay type: ADME, tissue-based; settings: in vivo, topical_or_ocular
# [15] = biological target: T1, Protein cereblon/Androgen receptor; experiment: PROTAC activity at CRBN/AR in human dermal papilla cells assessed as inhibition of TGF-beta1 release by measuring TGF-beta1 concentration at 500 nM preincubated with testosterone for 24 hrs followed by compound addition and measured after 48 hrs by ELISA; assay type: cell-based; settings: Human dermal papilla cell
# Target sequence in this assay (P10275 whole entry, looked up): as the sequence (P10275 whole entry, looked up) above
# Target sequence in this assay (Q96SW2 whole entry, looked up): as the sequence (Q96SW2 whole entry, looked up) above
# [16] = biological target: T1, Protein cereblon/Androgen receptor; experiment: PROTAC activity at CRBN/AR in human dermal papilla cell assessed as induction of AR degradation measured after 24 to 72 hrs by Western blot analysis; assay type: cell-based
# Target sequence in this assay (P10275 whole entry): as the sequence (P10275 whole entry, looked up) above
# Target sequence in this assay (Q96SW2 whole entry): as the sequence (Q96SW2 whole entry, looked up) above
# [17] = Ratio of drug concentration in male ICR mouse skin to spleen at 4 mg/ml, TOP measured after 12 hrs by LC-MS/MS analysis; assay type: ADME, tissue-based; settings: in vivo, topical_or_ocular
# [18] = AUC (0 to t) in male ICR mouse plasma at 4 mg/ml, TOP measured after 12 hrs by LC-MS/MS analysis; assay type: ADME, cell-free; settings: topical or ocular
# [19] = Ratio of drug concentration in male ICR mouse skin to kidney at 4 mg/ml, TOP measured after 0.25 hrs by LC-MS/MS analysis; assay type: ADME, tissue-based; settings: in vivo, topical_or_ocular
# Mus musculus [20] = experiment: Hair regeneration efficacy in testosterone induced male C57BL/6 mouse androgenetic alopecia model assessed as improvement in morphology of regenerated hair at 0.1 %, TOP administered once daily for 14 days with co-administration of 0.2% testosterone and measured after 28 days by SEM analysis; assay type: functional, organism-based; settings: time 28.0 day
# [21] = Ratio of drug concentration in male ICR mouse skin to spleen at 4 mg/ml, TOP measured after 0.25 hrs by LC-MS/MS analysis; assay type: ADME, tissue-based; settings: in vivo, topical_or_ocular
# [22] = biological target: T1, Protein cereblon/Androgen receptor; experiment: PROTAC activity at CRBN/AR in human dermal papilla cells assessed as induction of AR degradation at 500 nM in presence of MG132 by Western blot analysis; assay type: cell-based; settings: Human dermal papilla cell
# Target sequence in this assay (P10275 whole entry, looked up): as the sequence (P10275 whole entry, looked up) above
# Target sequence in this assay (Q96SW2 whole entry, looked up): as the sequence (Q96SW2 whole entry, looked up) above
# [23] = Ratio of drug concentration in male ICR mouse skin to lungs at 4 mg/ml, TOP measured after 0.25 hrs by LC-MS/MS analysis; assay type: ADME, tissue-based, Skin/Lung; settings: in vivo, topical_or_ocular
# [24] = Ratio of drug concentration in male ICR mouse skin to lungs at 4 mg/ml, TOP measured after 4 hrs by LC-MS/MS analysis; assay type: ADME, tissue-based, Skin/Lung; settings: in vivo, topical_or_ocular
# [25] = biological target: T1, Protein cereblon/Androgen receptor; experiment: PROTAC activity at CRBN/AR in human dermal papilla cells assessed as inhibition of TGF-beta1 release by measuring fold change in TGF-beta1 concentration at 1 uM preincubated with testosterone for 24 hrs followed by compound addition and measured after 48 hrs by ELISA relative to minoxidil; assay type: cell-based; settings: Human dermal papilla cell
# Target sequence in this assay (P10275 whole entry, looked up): as the sequence (P10275 whole entry, looked up) above
# Target sequence in this assay (Q96SW2 whole entry, looked up): as the sequence (Q96SW2 whole entry, looked up) above
# [26] = Ratio of drug concentration in male ICR mouse skin to liver at 4 mg/ml, TOP measured after 2 hrs by LC-MS/MS analysis; assay type: ADME, tissue-based; settings: in vivo, topical_or_ocular
# Mus musculus [27] = experiment: Hair regeneration efficacy in testosterone induced male C57BL/6 mouse androgenetic alopecia model assessed as increase in hair cycle score at 0.1 %, TOP administered once daily for 14 days with co-administration of 0.2% testosterone for 28 days; assay type: functional, organism-based; settings: time 14.0 day
# [28] = Ratio of drug concentration in male ICR mouse skin to spleen at 4 mg/ml, TOP measured after 8 hrs by LC-MS/MS analysis; assay type: ADME, tissue-based; settings: in vivo, topical_or_ocular
# [29] = Ratio of drug concentration in male ICR mouse skin to plasma at 4 mg/ml, TOP measured after 1 hrs by LC-MS/MS analysis; assay type: ADME, cell-free; settings: topical or ocular
# Mus musculus [30] = experiment: Hair regeneration efficacy in testosterone induced male C57BL/6 mouse androgenetic alopecia model assessed as increase in hair diameter at 0.1 %, TOP administered once daily for 14 days with co-administration of 0.2% testosterone and measured after 28 days by SEM analysis; assay type: functional, organism-based; settings: time 28.0 day
# [31] = Ratio of drug concentration in male ICR mouse skin to kidney at 4 mg/ml, TOP measured after 2 hrs by LC-MS/MS analysis; assay type: ADME, tissue-based; settings: in vivo, topical_or_ocular
# [32] = Ratio of drug concentration in male ICR mouse skin to heart at 4 mg/ml, TOP measured after 8 hrs by LC-MS/MS analysis; assay type: ADME, tissue-based; settings: in vivo, topical_or_ocular
smiles,measurement,setting,value
N#Cc1ccc(O[C@H]2CC[C@H](NC(=O)c3ccc(C4CCN(CC5CCCN(c6ccc(C(=O)NC7CCC(=O)NC7=O)cc6)C5)CC4)cc3)CC2)cc1Cl (some centres not stated),Activity,Mus musculus [1],Active
same,Activity,[2],736 pg/mL
same,Ratio,[3],403.09
same,Activity,Mus musculus [4],Active
same,Ratio,[5],288.26
same,Drug uptake,[6],2.48%
same,Ratio,[7],800.46
same,Activity,Mus musculus [8],Active
same,Ratio,[9],996.6
same,Activity,[10],Active
same,Ratio,[11],467.24
same,Ratio,[12],344.99
same,Ratio,[13],476.62
same,Ratio,[14],485.29
same,Activity,[15],869 pg/mL
same,DC50,[16],200 nM
same,Ratio,[17],249.88
same,AUC(0-t) at 12 h,[18],992 ng·h/mL
same,Ratio,[19],484.4
same,Activity,Mus musculus [20],Active
same,Ratio,[21],510.81
same,Activity,[22],Not active; Compound Activity Dependent On Ubiquitin-Proteosome System
same,Ratio,[23],269.54
same,Ratio,[24],238.43
same,fold change (FC),[25],0.77
same,Ratio,[26],441.98
same,Activity,Mus musculus [27],Active; Less Effective Compared To High Dose Compound Group And Minoxidil Group
same,Ratio,[28],347.97
same,Kp at 1 h,[29],71.5
same,Activity,Mus musculus [30],Active
same,Ratio,[31],410.02
same,Ratio,[32],754.91
